Laboratory results published in ChEMBL document CHEMBL5291721, “A preclinical secondary pharmacology resource illuminates target-adverse drug reaction associations of marketed drugs” (Nat Commun, 2023).

The molecules below were run against T1, Muscarinic acetylcholine receptor M1 (Homo sapiens, UniProt P11229).
T1 sequence (P11229 whole entry): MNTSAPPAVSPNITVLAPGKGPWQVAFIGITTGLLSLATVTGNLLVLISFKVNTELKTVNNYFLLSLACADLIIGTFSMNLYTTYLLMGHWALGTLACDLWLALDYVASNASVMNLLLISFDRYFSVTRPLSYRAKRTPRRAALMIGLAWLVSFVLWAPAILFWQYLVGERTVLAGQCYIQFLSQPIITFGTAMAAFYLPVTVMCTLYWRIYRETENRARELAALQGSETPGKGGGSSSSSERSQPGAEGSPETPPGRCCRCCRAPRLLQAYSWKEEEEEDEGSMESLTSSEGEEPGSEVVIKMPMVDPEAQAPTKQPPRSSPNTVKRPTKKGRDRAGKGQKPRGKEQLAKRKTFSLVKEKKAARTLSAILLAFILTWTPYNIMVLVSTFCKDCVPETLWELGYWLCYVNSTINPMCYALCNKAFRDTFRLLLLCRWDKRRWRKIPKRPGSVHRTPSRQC
Format: functional, cell-based
Note: assay procedure not described here.

For `C(=N\NC1=NCCN1)/c1c2ccccc2c(/C=N/NC2=NCCN2)c2ccccc12` [BISANTRENE], which AC50 is on record?
The AC50 was 6.37 µM.

For `CCO/N=C(\C(=O)N[C@@H]1C(=O)N2C(C(=O)[O-])=C(Sc3nc(-c4cc[n+](C)cc4)cs3)CS[C@H]12)c1nsc(N)n1` [CEFTAROLINE], which AC50 is on record?
Its AC50 is > 30 µM.

Which AC50 does the source give for `C[N+](C)(C)CCCCCCCCCC[N+](C)(C)C` [DECAMETHONIUM] here?
The AC50 was > 30 µM.

How did the AC50 turn out when `O=C1c2ccccc2C(=O)C1C(=O)C(c1ccccc1)c1ccccc1` [DIPHENADIONE] was run?
Its AC50 is > 3 µM.

For `O=C1[C@H](CC[C@H](O)c2ccc(F)cc2)[C@@H](c2ccc(O)cc2)N1c1ccc(F)cc1` [EZETIMIBE], which AC50 is on record?
The AC50 was 4.55 µM.

`CCC(=O)c1c(O)cc(O)cc1O` [FLOPROPIONE] was tested. Which AC50 did it give?
Its AC50 is > 30 µM.

For `CC(=O)Oc1c(C)cc(OCC(O)CNC(C)C)c(C)c1C` (centres undefined) [METIPRANOLOL], which AC50 is on record?
Its AC50 is > 30 µM.

With `CC(N/C(=N\C#N)Nc1ccncc1)C(C)(C)C` (centres undefined) [PINACIDIL ANHYDROUS] as the molecule, how does the AC50 read?
The AC50 was > 30 µM.

With `CN(C)C(=O)Oc1ccc[n+](C)c1` [PYRIDOSTIGMINE] as the molecule, how does the AC50 read?
Its AC50 is > 30 µM.

How did the AC50 turn out when `O=C(NC[C@H]1CN(c2ccc(N3CCOCC3=O)cc2)C(=O)O1)c1ccc(Cl)s1` [RIVAROXABAN] was run?
Its AC50 is > 3 µM.

For `Cc1ccc(O)c2ncccc12` [TILIQUINOL], which AC50 is on record?
Its AC50 is > 30 µM.

These molecules were tested against T2, 5-hydroxytryptamine receptor 1A (Homo sapiens, UniProt P08908).
T2 sequence (P08908 whole entry): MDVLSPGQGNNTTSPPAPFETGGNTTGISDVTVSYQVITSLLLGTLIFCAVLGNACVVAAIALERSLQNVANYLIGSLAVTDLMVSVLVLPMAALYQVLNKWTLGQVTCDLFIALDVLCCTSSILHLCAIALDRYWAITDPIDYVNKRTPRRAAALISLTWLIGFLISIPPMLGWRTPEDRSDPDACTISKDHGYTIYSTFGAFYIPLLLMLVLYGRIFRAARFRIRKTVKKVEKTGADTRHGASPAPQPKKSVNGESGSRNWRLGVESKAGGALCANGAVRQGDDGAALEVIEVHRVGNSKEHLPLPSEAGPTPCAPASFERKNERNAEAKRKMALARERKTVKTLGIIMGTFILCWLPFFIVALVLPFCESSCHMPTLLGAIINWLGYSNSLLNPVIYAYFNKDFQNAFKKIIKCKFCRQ

With `CN(C)CCCN1c2ccccc2CCc2ccc(Cl)cc21` [CLOMIPRAMINE] as the molecule, how does the AC50 read?
Its AC50 is > 10 µM.

For `NC1=NC(=O)C(c2ccccc2)O1` (centres undefined) [PEMOLINE], which AC50 is on record?
Its AC50 is > 10 µM.

What follows are molecules tested against Gamma-aminobutyric acid receptor subunit alpha-1/alpha-2/beta-2/gamma-2 (Homo sapiens, UniProt P14867+P18507+P47869+P47870).
Chain of Gamma-aminobutyric acid receptor subunit alpha-1/alpha-2/beta-2/gamma-2 (P14867 whole entry): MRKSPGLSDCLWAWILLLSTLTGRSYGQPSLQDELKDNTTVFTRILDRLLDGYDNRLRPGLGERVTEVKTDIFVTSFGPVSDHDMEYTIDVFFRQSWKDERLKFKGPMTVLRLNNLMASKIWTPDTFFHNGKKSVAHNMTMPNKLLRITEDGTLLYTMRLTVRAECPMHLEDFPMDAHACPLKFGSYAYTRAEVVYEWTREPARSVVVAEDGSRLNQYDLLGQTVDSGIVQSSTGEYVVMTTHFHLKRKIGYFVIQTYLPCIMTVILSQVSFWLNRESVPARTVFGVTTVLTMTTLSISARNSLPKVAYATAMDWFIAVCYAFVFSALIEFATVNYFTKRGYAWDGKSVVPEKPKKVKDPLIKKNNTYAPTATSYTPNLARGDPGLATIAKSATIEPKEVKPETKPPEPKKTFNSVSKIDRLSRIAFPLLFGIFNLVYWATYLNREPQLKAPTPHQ
Chain of Gamma-aminobutyric acid receptor subunit alpha-1/alpha-2/beta-2/gamma-2 (P47870 whole entry): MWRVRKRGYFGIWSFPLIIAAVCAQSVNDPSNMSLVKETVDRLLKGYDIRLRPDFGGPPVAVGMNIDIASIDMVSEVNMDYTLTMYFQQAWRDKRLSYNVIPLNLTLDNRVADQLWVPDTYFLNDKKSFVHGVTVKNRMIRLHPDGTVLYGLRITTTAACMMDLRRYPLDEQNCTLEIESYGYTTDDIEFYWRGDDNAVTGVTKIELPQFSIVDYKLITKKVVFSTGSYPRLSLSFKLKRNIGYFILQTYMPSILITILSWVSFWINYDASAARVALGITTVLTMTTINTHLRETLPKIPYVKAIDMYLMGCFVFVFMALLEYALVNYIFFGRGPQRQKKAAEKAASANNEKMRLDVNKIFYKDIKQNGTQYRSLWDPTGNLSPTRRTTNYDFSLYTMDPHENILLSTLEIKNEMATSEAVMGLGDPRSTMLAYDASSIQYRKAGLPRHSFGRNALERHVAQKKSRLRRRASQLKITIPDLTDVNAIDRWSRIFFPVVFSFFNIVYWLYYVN
Chain of Gamma-aminobutyric acid receptor subunit alpha-1/alpha-2/beta-2/gamma-2 (P18507 whole entry): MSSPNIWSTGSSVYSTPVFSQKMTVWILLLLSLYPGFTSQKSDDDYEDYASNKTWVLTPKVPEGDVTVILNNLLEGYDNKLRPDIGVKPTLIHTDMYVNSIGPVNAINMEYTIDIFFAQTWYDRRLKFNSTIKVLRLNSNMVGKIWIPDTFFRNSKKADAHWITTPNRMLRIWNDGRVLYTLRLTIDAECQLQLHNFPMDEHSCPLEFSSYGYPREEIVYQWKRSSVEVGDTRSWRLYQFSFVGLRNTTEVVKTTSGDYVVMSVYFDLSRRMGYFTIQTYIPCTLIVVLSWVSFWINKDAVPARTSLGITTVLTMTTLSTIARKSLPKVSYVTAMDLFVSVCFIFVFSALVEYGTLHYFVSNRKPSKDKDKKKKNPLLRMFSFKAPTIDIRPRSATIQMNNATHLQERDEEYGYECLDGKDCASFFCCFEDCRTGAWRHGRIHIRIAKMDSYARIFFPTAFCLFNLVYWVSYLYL
Chain of Gamma-aminobutyric acid receptor subunit alpha-1/alpha-2/beta-2/gamma-2 (P47869 whole entry): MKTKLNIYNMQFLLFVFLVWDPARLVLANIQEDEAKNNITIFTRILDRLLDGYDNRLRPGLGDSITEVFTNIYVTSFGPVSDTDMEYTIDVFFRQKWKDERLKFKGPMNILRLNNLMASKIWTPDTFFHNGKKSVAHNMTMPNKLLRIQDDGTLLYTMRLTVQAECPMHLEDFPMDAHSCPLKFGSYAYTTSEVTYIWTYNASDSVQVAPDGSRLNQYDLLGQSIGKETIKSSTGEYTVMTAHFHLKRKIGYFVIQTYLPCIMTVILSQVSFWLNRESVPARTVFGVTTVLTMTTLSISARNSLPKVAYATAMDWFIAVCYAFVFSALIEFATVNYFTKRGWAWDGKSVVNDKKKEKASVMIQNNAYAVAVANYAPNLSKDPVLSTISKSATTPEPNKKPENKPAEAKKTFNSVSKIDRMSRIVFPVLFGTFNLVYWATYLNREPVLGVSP
Format: functional, cell-based

`CO/N=C(\C(=O)N[C@@H]1C(=O)N2C(C(=O)[O-])=C(C[N+]3(C)CCCC3)CS[C@H]12)c1csc(N)n1` was tested. Which AC50 did it give?
Its AC50 is > 2400 µM.

How did the AC50 turn out when `CC(=O)c1ccc2c(c1)N(CCCN1CCN(CCO)CC1)c1ccccc1S2` [ACETOPHENAZINE] was run?
The AC50 was > 30 µM.

`CN1CCCC(n2nc(Cc3ccc(Cl)cc3)c3ccccc3c2=O)CC1` (centres undefined) [AZELASTINE] was tested. Which AC50 did it give?
Its AC50 is > 30 µM.

With `N[C@@H](C(=O)N[C@@H]1C(=O)N2C(C(=O)O)=C(Cl)CS[C@H]12)c1ccccc1` [CEFACLOR ANHYDROUS] as the molecule, how does the AC50 read?
Its AC50 is > 30 µM.

For `CC(=O)OCC(=O)[C@@]1(O)CC[C@H]2[C@@H]3CCC4=CC(=O)CC[C@]4(C)[C@H]3C(=O)C[C@@]21C` [CORTISONE ACETATE], which AC50 is on record?
The AC50 was > 30 µM.

With `CC(C)Cc1ccc(CC(=O)O)cc1` [IBUFENAC] as the molecule, how does the AC50 read?
Its AC50 is > 30 µM.

How did the AC50 turn out when `CC(C)NNC(=O)c1ccncc1` [IPRONIAZID] was run?
Its AC50 is > 30 µM.

With `NC(=O)c1ncn([C@@H]2O[C@H](CO)[C@@H](O)[C@H]2O)c1O` [MIZORIBINE] as the molecule, how does the AC50 read?
Its AC50 is > 30 µM.

Which AC50 does the source give for `CC[C@H](C)C(=O)O[C@H]1C[C@H](O)C=C2C=C[C@H](C)[C@H](CC[C@@H](O)C[C@@H](O)CC(=O)O)[C@H]21` [PRAVASTATIN] here?
Its AC50 is > 30 µM.

`O=C(NC[C@H]1CN(c2ccc(N3CCOCC3=O)cc2)C(=O)O1)c1ccc(Cl)s1` [RIVAROXABAN] was tested. Which AC50 did it give?
The AC50 was > 30 µM.

How did the AC50 turn out when `OCc1cc([C@@H](O)CNCCCCCCOCCOCc2c(Cl)cccc2Cl)ccc1O` [VILANTEROL] was run?
The AC50 was > 30 µM.
